Measurements: patent US7977387B2, “Aminobenzophenone compounds” (Leo Pharma A/S, priority 2003, dated 2011)

Legend:
IL-1β = assay: Inhibition of IL-1β secretion in LPS stimulated peripheral blood mononuclear cells; assay type: cell-based; conditions: PBMC; LPS stimulated human peripheral blood mononuclear cells, 18 hours, ELISA; read-out: The median inhibition concentration (IC50, nM) of IL-1β
Method: (§1) To study the effect of compounds of the present invention in vitro, the inhibition of IL-1β and TNF-α secretion was determined using the following procedure:
(§2) Cytokine production was measured in the media from lipopolysaccharide (LPS) stimulated peripheral blood mononuclear cells. The mononuclear cells were isolated from human peripheral blood by Lymphoprep® (Nycomed, Norway) fractionation and suspended in RPMI 1640 (growth medium) with foetal calf serum (FCS, 2%), at a concentration of 5×10^5 cells/ml. The cells were incubated in 24-well tissue culture plates in 1 ml aliquots. Test compounds were dissolved in dimethylsulfoxide (DMSO, 10 mM) and were diluted with the medium. Compounds were added to the cells for 30 minutes, then LPS ([…] final concentration) was added. The plates were incubated for 18 hours, and the concentration of IL-β and TNF-α in the medium was determined by enzyme-linked immunosorbent assays. The median inhibitory concentrations (IC50) of the compounds were calculated.

TNF-α = assay: Inhibition of TNF-α secretion in LPS stimulated peripheral blood mononuclear cells; assay type: cell-based; conditions: PBMC; LPS stimulated human peripheral blood mononuclear cells, 18 hours, ELISA; read-out: The median inhibition concentration (IC50, nM) of TNF-α
Method: as §1, §2

Structure (SMILES) | IC50 (IL-1β) | IC50 (TNF-α)
COc1ccc(C(=O)NCC(N)=O)cc1C(=O)c1ccc(Nc2ccc(F)cc2F)cc1Cl [Compound 144, N-Carbamoylmethyl-3-[2-chloro-4-(2,4-difluoro-phenylamino)-benzoyl]-4-methoxy-benzamide] | 1 nM | 0.6 nM
Cc1ccc(C(=O)N[C@H]2CC[C@H](O)CC2)cc1C(=O)c1ccc(Nc2ccc(Cl)cc2F)cc1Cl [Compound 136, 3-[2-Chloro-4-(4-chloro-2-fluoro-phenylamino)-benzoyl]-N-trans-(4-hydroxy-cyclohexyl)-4-methyl-benzamide] | 4 nM | 2 nM
Cc1ccc(C(=O)NCCCO)cc1C(=O)c1ccc(Nc2ccccc2N)cc1Cl [Compound 118, 3-[4-(2-Aminophenylamino)-2-chlorobenzoyl]-N-(3-hydroxypropyl)-4-methylbenzamide] | 2.2 nM | 2 nM
CCOC(=O)CNC(=O)CNC(=O)c1ccc(C)c(C(=O)c2ccc(Nc3ccc(F)cc3F)cc2Cl)c1 [Compound 169, (2-{3-[2-Chloro-4-(2,4-difluoro-phenylamino)-benzoyl]-4-methyl-benzoylamino}-acetylamino)-acetic acid ethyl ester] | 0.4 nM | 0.4 nM

The next lines start with the values.

IC50 (IL-1β) | IC50 (TNF-α) | Structure (SMILES)
5.6 nM | 1.4 nM | Cc1ccc(NC(=O)c2ccccc2O)cc1C(=O)c1ccc(Nc2ccc(F)cc2F)cc1Cl [Compound 247, N-{3-[2-Chloro-4-(2,4-difluoro-phenylamino)-benzoyl]-4-methyl-phenyl}-2-hydroxy-benzamide]
0.4 nM | 0.2 nM | C=CCNC(=O)Nc1ccc(C)c(C(=O)c2ccc(Nc3ccc(F)cc3F)cc2Cl)c1 [Compound 267, 1-Allyl-3-{3-[2-chloro-4-(2,4-difluoro-phenylamino)-benzoyl]-4-methyl-phenyl}-urea]
0.6 nM | 0.5 nM | CCOC(=O)Nc1ccc(C)c(C(=O)c2ccc(Nc3ccc(F)cc3F)cc2Cl)c1 [Compound 279, {3-[2-Chloro-4-(2,4-difluoro-phenylamino)-benzoyl]-4-methyl-phenyl}-carbamic acid ethyl ester]
1.1 nM | 0.5 nM | Cc1ccc(C(=O)NCCO)cc1C(=O)c1ccc(Nc2ccccc2)cc1Cl [Compound 191, 3-(2-Chloro-4-phenylamino-benzoyl)-N-(2-hydroxy-ethyl)-4-methyl-benzamide]
7.9 nM | 3.2 nM | COc1ccc(C(=O)NCCF)cc1C(=O)c1ccc(Nc2ccccc2)cc1Cl [Compound 201, 3-(2-Chloro-4-phenylamino-benzoyl)-N-(2-fluoro-ethyl)-4-methoxy-benzamide]
1 nM | 0.7 nM | Cc1ccc(NC(=O)CC2NC(=O)NC2=O)cc1C(=O)c1ccc(Nc2ccc(F)cc2F)cc1Cl (centres unmarked) [Compound 248, N-{3-[2-Chloro-4-(2,4-difluoro-phenylamino)-benzoyl]-4-methyl-phenyl}-2-(2,5-dioxo-imidazolidin-4-yl)-acetamide]
